Assay results published in US9949917B2, “Cosmetic composition comprising a combination of a sugar fatty acid ester with a plant extract of Waltheria indica or Pisum sativum for skin whitening” (Cognis IP Management GmbH, priority 2006, dated 2018).

Columns and labels:
[1] = biological target: T1, Tyrosinase in B16 melanocytes (Mus musculus, UniProt P11344); assay: Tyrosinase activity on melanocytes (DL-DOPA, optical density at 475 nm); format: cell-based
T1 construct: endogenous in cells; host or cells: B16 melanocytes (cell line)
T1 sequence (P11344 19-533): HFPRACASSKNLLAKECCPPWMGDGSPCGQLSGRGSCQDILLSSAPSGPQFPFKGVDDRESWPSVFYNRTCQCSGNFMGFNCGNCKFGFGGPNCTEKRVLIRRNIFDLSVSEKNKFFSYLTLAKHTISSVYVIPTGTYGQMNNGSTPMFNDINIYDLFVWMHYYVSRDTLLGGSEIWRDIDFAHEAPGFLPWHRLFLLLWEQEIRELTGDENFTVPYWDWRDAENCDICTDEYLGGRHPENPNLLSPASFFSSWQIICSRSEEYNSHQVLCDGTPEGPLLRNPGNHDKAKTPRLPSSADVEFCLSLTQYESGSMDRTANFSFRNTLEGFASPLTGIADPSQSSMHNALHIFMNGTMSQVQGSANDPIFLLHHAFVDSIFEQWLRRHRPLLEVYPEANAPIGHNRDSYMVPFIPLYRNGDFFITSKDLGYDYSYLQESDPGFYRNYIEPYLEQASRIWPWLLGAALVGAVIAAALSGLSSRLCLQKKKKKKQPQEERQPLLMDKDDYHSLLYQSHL
Source text: Melanocytes (B16 cell line) were inoculated in standard medium of cell culture with foetal calf serum (FCS). […] Combinations of ingredients have been tested on the same cultures, in parallel with ingredients alone. […] The optical density at 475 nm is expressed as a % against control and presented as a mean+/−SEM (standard error of mean) of triplicates.

[2] = test system: Melanocytes (B16 cell line); assay: Melanogenesis inhibition assay: level of melanin (optical density at 475 nm); format: cell-based
Method: Melanocytes (B16 cell line) were inoculated in standard medium of cell culture with foetal calf serum (FCS). After an incubation for 3 days at 37° C. and CO2=5%, growth medium was exchanged for standard medium with a range of concentrations for each ingredient to be tested and a control without ingredient. After an incubation of 3 days, the level of melanin is measured by recording the optical density at 475 nm. After washing the cells by a balanced salt, and homogenisation in a solution of 0.1 M NaOH, the number of viable cells is determined by evaluation of the level of cellular proteins (Bradford's method).
Combinations of ingredients have been tested on the same cell cultures, in parallel with the ingredients alone. The results are expressed in % against control (cell culture medium without ingredient) as a mean+/−SEM (Standard Error of Mean) on 2 or 3 assays, each in triplicate.

[3] = sucrose laurate 0.0003% (w/v) alone, 3 assays

Sucrose laurate [Sucrose laurate of example 5]
effect on tyrosinase activity in melanocytes (in words) ([1]; Tables 7 and 8): decreases the tyrosinase activity | Tyrosinase activity in %/control ([1]; sucrose laurate 0.005% (w/v) alone): 75 +/− 6 %/control | Tyrosinase activity in %/control ([1]; sucrose laurate 0.01% (w/v) alone): 64 +/− 7 %/control | Rate of melanin in %/control [2, 3]: 56 +/− 18 %/control | Ratio of rate of cellular proteins on rate of melanin [2, 3]: 1.8 | Rate of melanin in %/control ([2]; sucrose laurate 0.0003% (w/v) alone, 3 assays, listed as sucrose laurate): 56+/−18 %/control | Rate of melanin in %/control ([2]; sucrose laurate 0.001% (w/v) alone, 2 assays (Table 5)): 56 +/− 7 %/control | Ratio of rate of cellular proteins on rate of melanin ([2]; sucrose laurate 0.001% (w/v) alone, 2 assays (Table 6)): 1.6 | Rate of melanin in %/control ([2]; sucrose laurate 0.001% (w/v) alone, 3 assays (Table 2)): 54 +/− 16 %/control | Rate of melanin in %/control ([2]; sucrose laurate 0.001% (w/v) alone, 3 assays (Table 2), listed as sucrose laurate): 54+/−16 %/control | Ratio of rate of cellular proteins on rate of melanin ([2]; sucrose laurate 0.001% (w/v) alone, 3 assays (Table 3)): 1.8
